pIC50: −log10 of the molar value.
Target: T1, recombinant human baculovirus-expressed GST-tagged FASN (Homo sapiens, UniProt P49327)
T1 construct: GST
Assay: biochemical
Details: not given

T1 sequence (P49327 whole entry): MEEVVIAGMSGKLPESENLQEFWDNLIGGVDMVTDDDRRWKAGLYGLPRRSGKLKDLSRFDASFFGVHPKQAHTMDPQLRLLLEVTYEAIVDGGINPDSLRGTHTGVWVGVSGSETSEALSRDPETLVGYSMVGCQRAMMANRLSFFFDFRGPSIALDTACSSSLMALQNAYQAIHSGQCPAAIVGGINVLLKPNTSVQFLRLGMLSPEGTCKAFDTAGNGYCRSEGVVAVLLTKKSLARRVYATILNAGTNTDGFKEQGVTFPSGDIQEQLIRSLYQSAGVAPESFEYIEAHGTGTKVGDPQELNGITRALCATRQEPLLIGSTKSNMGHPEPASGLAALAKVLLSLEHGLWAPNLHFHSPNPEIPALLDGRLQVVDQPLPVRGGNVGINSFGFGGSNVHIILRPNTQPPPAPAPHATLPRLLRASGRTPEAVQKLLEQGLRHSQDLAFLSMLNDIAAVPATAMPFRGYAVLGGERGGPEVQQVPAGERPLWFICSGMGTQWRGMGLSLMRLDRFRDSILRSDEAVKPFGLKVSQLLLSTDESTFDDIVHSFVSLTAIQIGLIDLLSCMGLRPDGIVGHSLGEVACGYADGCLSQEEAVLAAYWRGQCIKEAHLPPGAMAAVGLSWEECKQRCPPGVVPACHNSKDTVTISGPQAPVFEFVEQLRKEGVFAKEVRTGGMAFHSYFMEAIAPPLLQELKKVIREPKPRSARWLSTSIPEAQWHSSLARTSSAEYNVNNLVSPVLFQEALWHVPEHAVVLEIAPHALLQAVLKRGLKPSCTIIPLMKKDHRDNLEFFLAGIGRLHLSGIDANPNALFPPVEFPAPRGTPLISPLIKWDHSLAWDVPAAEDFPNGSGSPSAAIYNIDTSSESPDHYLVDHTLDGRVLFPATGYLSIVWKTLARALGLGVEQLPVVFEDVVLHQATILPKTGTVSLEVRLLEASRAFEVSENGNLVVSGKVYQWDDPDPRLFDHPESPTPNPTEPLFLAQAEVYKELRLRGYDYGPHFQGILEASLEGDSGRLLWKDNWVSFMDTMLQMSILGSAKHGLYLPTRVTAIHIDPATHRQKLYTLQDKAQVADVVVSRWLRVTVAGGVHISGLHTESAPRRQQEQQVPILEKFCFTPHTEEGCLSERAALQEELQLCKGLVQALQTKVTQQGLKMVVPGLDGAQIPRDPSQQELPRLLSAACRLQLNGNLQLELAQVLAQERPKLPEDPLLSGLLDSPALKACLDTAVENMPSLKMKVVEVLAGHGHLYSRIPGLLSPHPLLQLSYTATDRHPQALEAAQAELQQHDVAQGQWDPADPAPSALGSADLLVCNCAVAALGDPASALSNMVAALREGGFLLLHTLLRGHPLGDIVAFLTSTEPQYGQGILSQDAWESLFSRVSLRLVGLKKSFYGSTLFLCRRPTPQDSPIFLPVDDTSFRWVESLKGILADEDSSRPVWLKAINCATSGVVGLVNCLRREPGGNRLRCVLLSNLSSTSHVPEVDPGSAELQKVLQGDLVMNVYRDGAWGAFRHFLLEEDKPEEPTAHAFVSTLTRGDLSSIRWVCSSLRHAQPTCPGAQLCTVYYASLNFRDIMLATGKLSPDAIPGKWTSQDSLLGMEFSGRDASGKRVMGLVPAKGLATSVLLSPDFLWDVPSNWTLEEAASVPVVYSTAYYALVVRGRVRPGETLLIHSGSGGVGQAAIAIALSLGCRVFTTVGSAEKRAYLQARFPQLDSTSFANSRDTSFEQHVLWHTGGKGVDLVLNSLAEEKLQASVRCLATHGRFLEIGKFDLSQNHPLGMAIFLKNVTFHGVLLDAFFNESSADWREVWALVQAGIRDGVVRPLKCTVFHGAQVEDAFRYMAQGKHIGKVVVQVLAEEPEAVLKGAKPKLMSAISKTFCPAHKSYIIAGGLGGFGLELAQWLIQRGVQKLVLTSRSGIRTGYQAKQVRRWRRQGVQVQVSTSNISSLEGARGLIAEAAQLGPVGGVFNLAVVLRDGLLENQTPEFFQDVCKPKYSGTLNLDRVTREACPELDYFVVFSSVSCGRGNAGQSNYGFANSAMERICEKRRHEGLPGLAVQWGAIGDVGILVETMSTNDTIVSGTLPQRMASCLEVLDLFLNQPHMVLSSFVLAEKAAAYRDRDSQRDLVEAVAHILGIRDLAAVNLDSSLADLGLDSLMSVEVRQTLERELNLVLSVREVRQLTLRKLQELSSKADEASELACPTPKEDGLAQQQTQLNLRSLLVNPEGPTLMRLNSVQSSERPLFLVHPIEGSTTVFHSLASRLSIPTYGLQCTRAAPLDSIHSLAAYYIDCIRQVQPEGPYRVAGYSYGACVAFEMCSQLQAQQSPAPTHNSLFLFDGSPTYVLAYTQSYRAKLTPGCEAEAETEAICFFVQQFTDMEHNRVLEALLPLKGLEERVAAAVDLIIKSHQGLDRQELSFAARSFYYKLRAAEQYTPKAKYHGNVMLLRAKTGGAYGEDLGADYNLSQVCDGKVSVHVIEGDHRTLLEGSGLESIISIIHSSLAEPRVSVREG

SMILES	pIC50
CONC(=O)N1CCC2(CC1)OCc1cc(-c3cnc4ccccc4c3C)ccc1O2 [Example 133, N-Methoxy-6-(4-methyl-3-quinolyl)spiro[4H-1,3-benzodioxine-2,4′-piperidine]-1′-carboxamide]	7.00 to 9.00
CONC(=O)N1CCC2(CC1)OCc1cc(-c3ccc4cccnc4c3Cl)ccc1O2 [Example 134, 6-(8-Chloro-7-quinolyl)-N-methoxy-spiro[4H-1,3-benzodioxine-2,4′-piperidine]-1′-carboxamide]	7.00 to 9.00
CCONC(=O)N1CCC2(CC1)OCc1cc(-c3ccc4cccnc4c3Cl)ccc1O2 [Example 135, 6-(8-Chloro-7-quinolyl)-N-ethoxy-spiro[4H-1,3-benzodioxine-2,4′-piperidine]-1′-carboxamide]	7.00 to 9.00
O=C(NO)N1CCC2(CC1)OCc1cc(-c3ccc4cccnc4c3Cl)ccc1O2 [Example 136, 6-(8-Chloro-7-quinolyl)spiro[4H-1,3-benzodioxine-2,4′-piperidine]-1′-carbohydroxamic acid]	6.00 to 7.00
CCOC(=O)N1CCC2(CC1)OCc1cc(-c3ccc4cccnc4c3Cl)ccc1O2 [Example 137, Ethyl 6-(8-chloro-7-quinolyl)spiro[4H-1,3-benzodioxine-2,4′-piperidine]-1′-carboxylate]	5.00 to 6.00
CCOC(=O)N1CCC2(CC1)OCc1cc(-c3cnc4ccccc4c3C)ccc1O2 [Example 138, Ethyl 6-(4-methyl-3-quinolyl)spiro[4H-1,3-benzodioxine-2,4′-piperidine]-1′-carboxylate]	6.00 to 7.00
CCONC(=O)N1CCC2(CC1)OCc1cc(-c3cnc4ccccc4c3C)ccc1O2 [Example 139, N-Ethoxy-6-(4-methyl-3-quinolyl)spiro[4H-1,3-benzodioxine-2,4′-piperidine]-1′-carboxamide]	7.00 to 9.00
Cc1c(-c2ccc3c(c2)COC2(CCN(C(=O)NO)CC2)O3)cnc2ccccc12 [Example 140, 6-(4-Methyl-3-quinolyl)spiro[4H-1,3-benzodioxine-2,4′-piperidine]-1′-carbohydroxamic acid]	5.00 to 6.00
NC(=O)N1CCC2(CC1)OCc1cc(-c3cc4ccccc4cn3)ccc1O2 [Example 142, 6-(3-Isoquinolyl)spiro[4H-1,3-benzodioxine-2,4′-piperidine]-1′-carboxamide]	5.00 to 6.00
O=C(NOC1CCCCO1)N1CCC2(CC1)OCc1cc(-c3cc4ccccc4cn3)ccc1O2 (stereo not shown) [Example 144, 6-(3-Isoquinolyl)-N-tetrahydropyran-2-yloxy-spiro[4H-1,3-benzodioxine-2,4′-piperidine]-1′-carboxamide]	6.00 to 7.00
CCONC(=O)N1CCC2(CC1)OCc1cc(-c3cc4ccccc4cn3)ccc1O2 [Example 145, N-Ethoxy-6-(3-isoquinolyl)spiro[4H-1,3-benzodioxine-2,4′-piperidine]-1′-carboxamide]	7.00 to 9.00
CONC(=O)N1CCC2(CC1)OCc1cc(-c3cc4ccccc4cn3)ccc1O2 [Example 147, 6-(3-Isoquinolyl)-N-methoxy-spiro[4H-1,3-benzodioxine-2,4′-piperidine]-1′-carboxamide]	7.00 to 9.00
O=C(NO)N1CCC2(CC1)OCc1cc(-c3cc4ccccc4cn3)ccc1O2 [Example 150, 6-(3-Isoquinolyl)spiro[4H-1,3-benzodioxine-2,4′-piperidine]-1′-carbohydroxamic acid]	5.00 to 6.00

Same assay, conditions: 5 nM FASN, 150 μM NADPH, 10 μM acetyl-CoA, 25 μM malonyl-CoA, 90 minutes incubation; read-out: IC50 data for Compounds of Formula I, Activity

SMILES	pIC50
Cc1c(-c2ccc3c(c2)CCC2(CCN(C(=O)NO)CC2)O3)ccc2nccn12 [Example 141, 6-(5-Methylimidazo[1,2-a]pyridin-6-yl)spiro[chromane-2,4′-piperidine]-1′-carbohydroxamic acid]	5.00 to 6.00
NC(=O)N1CCC2(CCc3cc(-c4cc5ccccc5cn4)ccc3O2)CC1 [Example 143, 6-(3-Isoquinolyl)spiro[chromane-2,4′-piperidine]-1′-carboxamide]	5.00 to 6.00
O=C(NOC1CCCCO1)N1CCC2(CCc3cc(-c4cc5ccccc5cn4)ccc3O2)CC1 (stereo not shown) [Example 146, 6-(3-Isoquinolyl)-N-tetrahydropyran-2-yloxy-spiro[chromane-2,4′-piperidine]-1′-carboxamide]	6.00 to 7.00
CONC(=O)N1CCC2(CCc3cc(-c4cc5ccccc5cn4)ccc3O2)CC1 [Example 148, 6-(3-Isoquinolyl)-N-methoxy-spiro[chromane-2,4′-piperidine]-1′-carboxamide]	7.00 to 9.00
CCONC(=O)N1CCC2(CCc3cc(-c4cc5ccccc5cn4)ccc3O2)CC1 [Example 149, N-Ethoxy-6-(3-isoquinolyl)spiro[chromane-2,4′-piperidine]-1′-carboxamide]	7.00 to 9.00
O=C(NO)N1CCC2(CCc3cc(-c4cc5ccccc5cn4)ccc3O2)CC1 [Example 151, 6-(3-Isoquinolyl)spiro[chromane-2,4′-piperidine]-1′-carbohydroxamic acid]	5.00 to 6.00
Cc1c(-c2ccc3c(c2)CC2(CCN(C(N)=O)CC2)O3)ccc2cccnc12 [Example 152, 5-(8-Methyl-7-quinolyl)spiro[3H-benzofuran-2,4′-piperidine]-1′-carboxamide]	7.00 to 9.00
CONC(=O)N1CCC2(CC1)Cc1cc(-c3ccc4cccnc4c3C)ccc1O2 [Example 153, N-Methoxy-5-(8-methyl-7-quinolyl)spiro[3H-benzofuran-2,4′-piperidine]-1′-carboxamide]	5.00 to 6.00
CCONC(=O)N1CCC2(CC1)Cc1cc(-c3ccc4cccnc4c3C)ccc1O2 [Example 154, N-Ethoxy-5-(8-methyl-7-quinolyl)spiro[3H-benzofuran-2,4′-piperidine]-1′-carboxamide]	5.00 to 6.00
Cc1c(-c2ccc3c(c2)CC2(CCN(C(=O)NO)CC2)O3)ccc2cccnc12 [Example 155, 5-(8-Methyl-7-quinolyl)spiro[3H-benzofuran-2,4′-piperidine]-1′-carbohydroxamic acid]	5.00 to 6.00
CCNC(=O)N1CCC2(CC1)Cc1cc(-c3ccc4cccnc4c3C)ccc1O2 [Example 156, N-Ethyl-5-(8-methyl-7-quinolyl)spiro[3H-benzofuran-2,4′-piperidine]-1′-carboxamide]	5.00 to 6.00
CONC(=O)N1CCC2(CC1)Cc1cc(-c3cnc4ccccc4c3C)ccc1O2 [Example 157, N-Methoxy-5-(4-methyl-3-quinolyl)spiro[3H-benzofuran-2,4′-piperidine]-1′-carboxamide]	5.00 to 6.00
CCONC(=O)N1CCC2(CC1)Cc1cc(-c3cnc4ccccc4c3C)ccc1O2 [Example 158, N-ethoxy-5-(4-methyl-3-quinolyl)spiro[3H-benzofuran-2,4′-piperidine]-1′-carboxamide]	5.00 to 6.00
Cc1c(-c2ccc3c(c2)CC2(CCN(C(N)=O)CC2)O3)cnc2ccccc12 [Example 159, 5-(4-Methyl-3-quinolyl)spiro[3H-benzofuran-2,4′-piperidine]-1′-carboxamide]	5.00 to 6.00
CCNC(=O)N1CCC2(CC1)Cc1cc(-c3cnc4ccccc4c3C)ccc1O2 [Example 160, N-Ethyl-5-(4-methyl-3-quinolyl)spiro[3H-benzofuran-2,4′-piperidine]-1′-carboxamide]	5.00 to 6.00
Cc1c(-c2ccc3c(c2)CC2(CCN(C(=O)NO)CC2)O3)cnc2ccccc12 [Example 161, 5-(4-Methyl-3-quinolyl)spiro[3H-benzofuran-2,4′-piperidine]-1′-carbohydroxamic acid]	5.00 to 6.00
COc1c(-c2ccc3c(c2)CC2(CCN(C(N)=O)CC2)O3)ccc2cccnc12 [Example 162, 5-(8-Methoxy-7-quinolyl)spiro[3H-benzofuran-2,4′-piperidine]-1′-carboxamide]	5.00 to 6.00
CCNC(=O)N1CCC2(CC1)Cc1cc(-c3ccc4cccnc4c3OC)ccc1O2 [Example 163, N-Ethyl-5-(8-methoxy-7-quinolyl)spiro[3H-benzofuran-2,4′-piperidine]-1′-carboxamide]	5.00 to 6.00
Cc1c(-c2ccc3c(c2)CC2(CCN(C(N)=O)CC2)O3)ccc2ccnn12 [Example 164, 5-(7-Methylpyrazolo[1,5-a]pyridin-6-yl)spiro[3H-benzofuran-2,4′-piperidine]-1′-carboxamide]	5.00 to 6.00
CCNC(=O)N1CCC2(CC1)Cc1cc(-c3ccc4ccnn4c3C)ccc1O2 [Example 165, N-Ethyl-5-(7-methylpyrazolo[1,5-a]pyridin-6-yl)spiro[3H-benzofuran-2,4′-piperidine]-1′-carboxamide]	5.00 to 6.00
CONC(=O)N1CCC2(CC1)Cc1cc(-c3ccc4cccnc4c3OC)ccc1O2 [Example 166, N-Methoxy-5-(8-methoxy-7-quinolyl)spiro[3H-benzofuran-2,4′-piperidine]-1′-carboxamide]	5.00 to 6.00
CCONC(=O)N1CCC2(CC1)Cc1cc(-c3ccc4cccnc4c3OC)ccc1O2 [Example 167, N-Ethoxy-5-(8-methoxy-7-quinolyl)spiro[3H-benzofuran-2,4′-piperidine]-1′-carboxamide]	5.00 to 6.00
COc1c(-c2ccc3c(c2)CC2(CCN(C(=O)NOC4CCCCO4)CC2)O3)ccc2cccnc12 (stereo not shown) [Example 168, 5-(8-Methoxy-7-quinolyl)-N-tetrahydropyran-2-yloxy-spiro[3H-benzofuran-2,4′-piperidine]-1′-carboxamide]	5.00 to 6.00
CCONC(=O)N1CCC2(CC1)Cc1cc(-c3ccc4ccnn4c3C)ccc1O2 [Example 169, N-Ethoxy-5-(7-methylpyrazolo[1,5-a]pyridin-6-yl)spiro[3H-benzofuran-2,4′-piperidine]-1′-carboxamide]	5.00 to 6.00
CONC(=O)N1CCC2(CC1)Cc1cc(-c3ccc4ccnn4c3C)ccc1O2 [Example 170, N-Methoxy-5-(7-methylpyrazolo[1,5-a]pyridin-6-yl)spiro[3H-benzofuran-2,4′-piperidine]-1′-carboxamide]	5.00 to 6.00
Cc1c(-c2ccc3c(c2)CC2(CCN(C(=O)NOC4CCCCO4)CC2)O3)ccc2ccnn12 (stereo not shown) [Example 171, 5-(7-Methylpyrazolo[1,5-a]pyridin-6-yl)-N-tetrahydropyran-2-yloxy-spiro[3H-benzofuran-2,4′-piperidine]-1′-carboxamide]	5.00 to 6.00
Cc1c(-c2ccc3c(c2)CCC2(CCN(C(N)=O)CC2)O3)ccc2ccc(=O)[nH]c12 [Example 172, 6-(8-Methyl-2-oxo-1H-quinolin-7-yl)spiro[chromane-2,4′-piperidine]-1′-carboxamide]	5.00 to 6.00
